Measured values taken from US20100292184A1, “17BETA-CYANO-19-ANDROST-4-ENE DERIVATIVE, ITS USE AND MEDICAMENTS COMPRISING THE DERIVATIVE” (BAYER SCHERING PHARMA AG, priority 2007, published 2010).
Where two headings read alike, the source gives them in different places.

Key:
PR = target: T1, PR (Rattus norvegicus, UniProt Q63449); test: maintenance of pregnancy test on the rat; assay type: in vivo; conditions: ovarectomized pregnant rats; for PR in vivo ED50 (pregnancy-maintaining dose): s.c. once daily from day 8 to day 15 or 21, with oestrone 5 μg/kg/day
T1 construct: from tissue; host or cells: whole animal: pregnant, ovariectomized rats
T1 sequence (Q63449 1-923): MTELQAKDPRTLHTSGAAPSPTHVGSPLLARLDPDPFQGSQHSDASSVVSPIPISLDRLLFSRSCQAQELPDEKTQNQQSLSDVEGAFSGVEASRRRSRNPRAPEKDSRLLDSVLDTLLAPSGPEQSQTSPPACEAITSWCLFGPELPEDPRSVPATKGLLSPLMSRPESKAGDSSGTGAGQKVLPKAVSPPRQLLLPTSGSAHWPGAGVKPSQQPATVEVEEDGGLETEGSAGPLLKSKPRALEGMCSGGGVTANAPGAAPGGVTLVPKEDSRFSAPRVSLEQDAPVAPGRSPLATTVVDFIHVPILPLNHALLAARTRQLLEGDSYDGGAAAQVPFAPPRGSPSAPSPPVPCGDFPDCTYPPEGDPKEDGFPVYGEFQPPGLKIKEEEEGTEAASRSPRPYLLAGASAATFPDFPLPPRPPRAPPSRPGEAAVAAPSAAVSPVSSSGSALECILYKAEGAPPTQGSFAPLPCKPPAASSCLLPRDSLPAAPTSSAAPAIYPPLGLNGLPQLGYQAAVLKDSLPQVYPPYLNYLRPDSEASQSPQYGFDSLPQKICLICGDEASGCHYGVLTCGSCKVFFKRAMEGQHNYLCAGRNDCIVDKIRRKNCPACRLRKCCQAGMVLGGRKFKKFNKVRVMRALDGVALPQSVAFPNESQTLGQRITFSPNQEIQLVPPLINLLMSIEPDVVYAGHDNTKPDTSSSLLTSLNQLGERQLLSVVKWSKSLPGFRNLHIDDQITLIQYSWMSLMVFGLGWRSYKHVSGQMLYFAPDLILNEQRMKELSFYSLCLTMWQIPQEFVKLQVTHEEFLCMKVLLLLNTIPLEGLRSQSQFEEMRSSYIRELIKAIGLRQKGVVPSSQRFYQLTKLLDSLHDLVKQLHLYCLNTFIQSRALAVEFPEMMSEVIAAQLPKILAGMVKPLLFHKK
Excerpt: Carrying out the maintenance of pregnancy test on the rat:
In pregnant rats, the removal of the corpora lutea or oophorectomy induces an abortion. By means of the exogenous administration of progestins (gestagens) in combination with a suitable dose of an oestrogen, the maintenance of pregnancy is possible. The maintenance of pregnancy test on ovarectomized rats serves for the determination of the peripheral gestagenic activity of a compound.
Rats were paired overnight during proestrus. Pairing was checked on the morning of the following day by the appraisal of a vaginal smear. The presence of the sperm was evaluated here as day 1 of a commencing pregnancy. On day 8 of the pregnancy, the animals were ovarectomized under ether anaesthesia. The treatment with test compound and exogenous oestrogen (oestrone, 5 μg/kg/day) was carried out subcutaneously once daily from day 8 to day 15 or day 21 of the pregnancy. The first administration on day 8 was carried out two hours before oophorectomy. Intact control animals were given exclusively vehicle.
At the end of the experiment (day 15 or day 21), the animals were sacrificed under a CO2 atmosphere, and live foetuses (foetuses having a beating heart) and implantation sites (early resorptions and dead foetuses including autolysis and atrophic placentas) were counted in both uterine horns. On day 22, it was moreover possible to examine foetuses for malformations. In uteri without foetuses or implantation sites, the number of nidation sites was determined by staining with 10% strength ammonium sulphide solution. The maintenance of pregnancy rate was calculated as the quotient of the number of living foetuses and the total number of nidation sites (both resorbed and dead foetuses and nidation sites). For drospirenone, this value is 3.5 mg/kg/day.

[1] = target: T2, mineralcorticoid receptor (Homo sapiens, UniProt P08235); test: MR antagonism luciferase reporter cell line assay; assay type: cell-based
T2 sequence (P08235 1-984): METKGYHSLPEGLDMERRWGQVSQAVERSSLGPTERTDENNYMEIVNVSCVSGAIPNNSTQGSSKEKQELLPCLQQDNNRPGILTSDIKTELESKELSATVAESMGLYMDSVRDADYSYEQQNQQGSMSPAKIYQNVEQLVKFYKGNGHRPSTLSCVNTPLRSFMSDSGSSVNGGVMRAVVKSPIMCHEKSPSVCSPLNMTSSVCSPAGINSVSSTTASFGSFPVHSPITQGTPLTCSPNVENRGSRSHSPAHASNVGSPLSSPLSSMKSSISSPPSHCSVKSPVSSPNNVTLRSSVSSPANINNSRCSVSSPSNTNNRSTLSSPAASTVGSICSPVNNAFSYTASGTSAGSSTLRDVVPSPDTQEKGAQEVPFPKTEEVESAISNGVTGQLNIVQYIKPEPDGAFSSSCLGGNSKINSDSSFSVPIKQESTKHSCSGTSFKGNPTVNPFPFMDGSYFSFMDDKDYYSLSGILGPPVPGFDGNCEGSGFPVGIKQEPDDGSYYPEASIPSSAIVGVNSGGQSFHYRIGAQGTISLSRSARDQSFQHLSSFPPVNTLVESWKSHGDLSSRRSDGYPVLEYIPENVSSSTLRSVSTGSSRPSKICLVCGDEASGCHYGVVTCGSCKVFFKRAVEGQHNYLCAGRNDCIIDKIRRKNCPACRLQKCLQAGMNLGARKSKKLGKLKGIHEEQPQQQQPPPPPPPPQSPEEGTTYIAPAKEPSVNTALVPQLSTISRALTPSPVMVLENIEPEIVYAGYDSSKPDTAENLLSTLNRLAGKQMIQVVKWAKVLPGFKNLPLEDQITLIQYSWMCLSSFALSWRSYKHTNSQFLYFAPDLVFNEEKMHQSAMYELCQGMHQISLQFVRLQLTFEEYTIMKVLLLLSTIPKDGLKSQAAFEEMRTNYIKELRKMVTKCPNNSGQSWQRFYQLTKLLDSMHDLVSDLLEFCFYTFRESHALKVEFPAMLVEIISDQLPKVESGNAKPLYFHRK
Method: The derivatives according to the invention having the general chemical formula have a very strong gestagenic activity. […] They should therefore have in vivo potassium-retaining, natriuretic (antimeralcorticoid) action. These properties were determined using the test described below:
For the culturing of the cells used for the assay, the culture medium used was DMEM (Dulbecco's Modified Eagle Medium: […] of glucose; PAA, #E15-009) with 10% FCS (Biochrom, S0115, batch #615B), 4 mM L-glutamine, 1% penicillin/streptomycin, 1 mg/ml of G418 and 0.5 μg/ml of puromycin.
Reporter cell lines were grown in a density of 4×10^4 cells per hollow in white, nontransparent tissue culture plates in each case having 96 hollows (PerkinElmer, #P12-106-017) and kept in 6% DCC-FCS (activated carbon-treated serum, for the removal of interfering components contained in the serum). The compounds to be investigated were added eight days later, and the cells were incubated with the compounds for 16 hours. The experiments were carried out in triplicate. At the end of the incubation, the effector-containing medium was removed and replaced by lysis buffer. After luciferase assay substrate (promega, #E1501) had been added, the plates containing the 96 hollows were then introduced into a microplate luminometer (Pherastar, BMG labtech), and the luminescence was measured. The […] values were evaluated using software for the calculation of dose-activity relationships.

[2] = reporter cell lines, 16 hours incubation, luciferase luminescence
[3] = reporter cell lines, 16 hours incubation, luciferase luminescence, read-out: MR Antagonism IC50

Row | Compound | PR in vivo ED50 (pregnancy-maintaining dose) (PR) [mg/kg/d s.c.] | IC50 [1] [nM] | MR Antagonism activity [% of the maximum effect] [1, 2] | IC50 [1, 3] [nM] | pregnancy-maintaining dose (ED50) (PR; subcutaneous, with oestrone 5 μg/kg/day) [mg/kg/day]
1 | C[C@]12CC[C@H]3[C@@H](CC4(CC4)C4=CC(=O)CC[C@@]43C)[C@@H]1CC[C@@H]2C#N | 25.0 | 20 | 99.16 % of the maximum effect | – | –
2 | C[C@]12CC[C@H]3[C@@H]([C@H]4C[C@H]4C4=CC(=O)CC[C@@]43C)[C@@H]1[C@@H]1C[C@@H]1[C@@H]2C#N [6β,7β-15β,16β-Bismethylene-17β-cyanoandrost-4-en-3-one] | 7.3 | 4.7 | 98.06 % of the maximum effect | – | –
3 | C[C@]12CCC(=O)C=C1CC[C@H]1[C@@H]3[C@@H]4C[C@@H]4[C@](C)(C#N)[C@@]3(C)CC[C@@H]12 [17β-Cyano-17α-methyl-15β,16β-methyleneandrost-4-en-3-one] | 10.0 | – | 98.30 % of the maximum effect | 42 | –
4 | C[C@]12CCC(=O)C=C1[C@@H]1C[C@@H]1[C@H]1[C@@H]3[C@@H]4C[C@@H]4[C@@]4(CCC(=O)O4)[C@@]3(C)CC[C@@H]12 [drospirenone, 6β,7β-15β,16β-dimethylene-3-oxo-17-pregn-4-ene-21,17β-carbolactone, reference compound] | – | – | – | – | 3.5
5 | C=CC[C@]1(C#N)CC[C@H]2[C@@H]3CCC4=CC(=O)CC[C@]4(C)[C@H]3CC[C@@]21C [17α-Allyl-17β-cyanoandrost-4-en-3-one] | – | – | 65.30 % of the maximum effect | 990 | –
